PMC11456916, “A screen for cell envelope stress uncovers an inhibitor of prolipoprotein diacylglyceryl transferase, Lgt, in Escherichiacoli” (iScience, 2024)
≈ marks a conversion by molar mass, not a printed value. Like-named read-outs stand apart in the source and are kept apart here.

How the values were obtained:
[1] = system: E. coli ΔtolC-pore; experiment: MIC assay, E. coli ΔtolC-pore; type: cell-based
Protocol: (§1) For MIC assays, cultures of bacteria were grown in LB broth. Overnight cultures were diluted (1:100) into fresh LB media and grown to the mid-log phase of growth (OD600 ∼0.5). Subcultures were then normalized to an OD600 of 0.1, and diluted (1:5000) into assay media. Assay plates were then incubated for 18 h at 37°C, then OD600 was measured using a Biotek Neo plate reader.

[2] = system: E. coli BW25113; experiment: MIC assay, wild-type E. coli with or without SPR741; type: cell-based
Protocol: (§2) We next sought to determine whether we could achieve growth inhibition of wild-type E. coli using MAC-0452936 and an antibiotic adjuvant. […] To that end, we determined the MIC of MAC-0452936 against wild-type E. coli in the presence and absence of a sub-MIC concentration of SPR741 (Figure S8B). […] We leveraged this combination to characterize the spectrum of activity of MAC-0452936 against a panel of Gram-negative pathogens (Table 2). In the presence of 8 μg/mL SPR741, we observed MAC-0452936 activity against the clinical E. coli isolates C0244 and CFT073 at 2 μg/mL as well as against Salmonella Typhimurium SL1344 at 4 μg/mL.
as §1

[3] = system: E. coli CFT073; experiment: MIC assay with or without SPR741, E. coli CFT073; type: cell-based; details: Escherichia coli
Protocol: as §2, §1

[4] = system: P. aeruginosa PA01; experiment: MIC assay with or without SPR741, P. aeruginosa; type: cell-based, Pseudomonas aeruginosa; details: for MIC: Pseudomonas aeruginosa
Protocol: as §2, §1

[5] = system: K. aerogenes CO045; experiment: MIC assay with or without SPR741, K. aerogenes; type: cell-based, Klebsiella aerogenes; details: for MIC: Klebsiella aerogenes
Protocol: as §2, §1

[6] = system: A. baumannii ATCC17978; experiment: MIC assay with or without SPR741, A. baumannii; type: cell-based, Acinetobacter baumannii; details: for MIC: Acinetobacter baumannii
Protocol: as §2, §1

[7] = system: S. aureus MRSA JE2; experiment: MIC assay with or without SPR741, S. aureus; type: cell-based, Staphylococcus aureus; details: for MIC: Staphylococcus aureus, MRSA
Protocol: as §2, §1

[8] = system: E. coli and the Gram-positive organisms Staphylococcus aureus and Bacillus subtilis; experiment: Growth inhibition in dose of E. coli and Gram-positive organisms; type: cell-based; details: tested in dose against E. coli, S. aureus and B. subtilis
Protocol: Of these 24 compounds, six were prioritized for further follow-up based on structural novelty relative to known antibacterial scaffolds and were tested in dose for growth inhibition of E. coli and the Gram-positive organisms Staphylococcus aureus and Bacillus subtilis (Figure S5). We hypothesized that compounds active against E. coli, but not the Gram-positive organisms, might target processes involved in the Gram-negative outer-membrane synthesis, many of which were identified as possible targets in our genetic screen. Importantly, these processes are either absent or not essential for growth in Gram-positive organisms, offering promise for narrow-spectrum applications.
as §1

[9] = molecular target: T1, prolipoprotein diacylglyceryl transferase, Lgt (Escherichia coli, UniProt P60955); experiment: In vitro Lgt biochemical assay (phosphatidylglycerol and Pal-IAAC peptide substrates); set-up: species or system E. coli
T1 construct: Expression, purification, and in vitro Lgt biochemical assay were conducted as described by Diao et al; made in house
Text: With both genetic and phenotypic evidence supporting MAC-0452936 inhibiting Lgt in E. coli, we next investigated whether MAC-0452936 could inhibit Lgt activity in vitro. Recently, a biochemical assay for Lgt activity was developed using phosphatidylglycerol and Pal-IAAC peptide as substrates.[12] […] As similar results were obtained using two different Lgt enzyme preparations, the inhibition observed by MAC-0452936 was not dependent on the preparation of the lipid matrix. Together, we present genetic, phenotypic, and biochemical evidence that MAC-0452936 inhibits the growth of E. coli through inhibition of Lgt. MAC-0452936 represents a previously undiscovered small molecule inhibitor of bacterial Lgt, and the oxime ester represents a promising chemical scaffold for antibiotic discovery.
Expression, purification, and in vitro Lgt biochemical assay were conducted as described by Diao et al.[12]

[10] = system: E. coli ΔtolC-pore; experiment: Time-kill assay; type: cell-based
Text: As Lgt is found at the inner membrane of Gram-negative bacteria, we sought to rule out physical perturbation of the membrane as the cause of the antibacterial activity observed for MAC-0452936. […] To that end, we treated both non-growing E. coli ΔtolC-pore in a nutrient-deplete medium (PBS) and actively growing E. coli ΔtolC-pore in a nutrient-replete medium (LB) with varying concentrations of MAC-0452936 and enumerated colony-forming units (CFUs) at different time points (Figure S9A). […] Indeed, MAC-0452936 reduced the bacterial counts of E. coli ΔtolC-pore to the limit of detection after 6 h at compound concentrations greater than 2 μg/mL. We then tested MAC-0452936 for hemolytic activity against human-derived red blood cells and cytotoxicity against HEK-293 cells. […] However, we did observe a modest decrease in the viability of HEK-293 cells when treated with concentrations of MAC-0452936 greater than 8 μg/mL.
E. coli ΔtolC-pore was grown overnight in LB broth. For killing in nutrient-deplete media, overnight culture was pelleted by centrifugation at 5,000g for 30 min, and resuspended in sterile PBS buffer. Cells in PBS were added to a microwell plate containing different concentrations of MAC-0452936 (100 μL final volume), and incubated for the specified time at 37°C with shaking. At the specified time points, cultures were pelleted by centrifugation 5,000g for 30 min at 4°C, then 10-fold serially diluted in PBS before being plated on LB agar for CFU enumeration. For killing of actively growing cells in nutrient replete media, overnight culture of E. coli ΔtolC-pore was diluted 1/1000 into fresh LB broth and grown at 37°C with shaking to the early-log phase of growth (∼2.5 h, OD600 ∼0.2). Cells in LB broth were then added to a microwell plate containing different concentrations of MAC-0452936 (100 μL final volume), and incubated for the specified time at 37°C with shaking. At the specified time points, cultures were pelleted by centrifugation 5,000g for 30 min at 4°C, then 10-fold serially diluted in PBS before being plated on LB agar for CFU enumeration.

T1 sequence (P60955 whole entry): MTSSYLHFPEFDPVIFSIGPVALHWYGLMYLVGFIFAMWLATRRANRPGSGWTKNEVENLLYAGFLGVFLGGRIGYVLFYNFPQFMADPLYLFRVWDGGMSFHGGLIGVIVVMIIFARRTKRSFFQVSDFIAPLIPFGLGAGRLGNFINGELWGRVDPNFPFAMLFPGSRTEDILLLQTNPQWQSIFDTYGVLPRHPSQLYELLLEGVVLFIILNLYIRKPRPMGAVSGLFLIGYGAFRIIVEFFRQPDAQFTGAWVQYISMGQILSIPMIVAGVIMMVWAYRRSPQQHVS

`COc1ccc(C(=O)O/N=C(\c2cccs2)C(C)(C)C)cc1` [MAC-0452936, (Z)-2-Pivaloylthiophene O-(4-methoxybenzoyl) oxime] was tested, and the “MIC, E. coli ΔtolC-pore” value ([1]; LB, 18 h) was 0.5 µg/mL (≈ 1.58 µM), the “activity against E. coli ΔtolC-pore” value ([1]; growth inhibition, in words) was “active” and the MIC ([2]; Escherichia coli, BW25113, read-out: MIC, E. coli BW25113 + 0 μg/mL SPR741) was > 64 µg/mL. The “activity against wild-type (WT) E. coli” value ([2]; growth inhibition, no SPR741, in words) was “inactive”, the MIC ([3]; CFT073, read-out: MIC, E. coli CFT073 + 8 μg/mL SPR741) was 2 µg/mL and the MIC ([3]; CFT073, read-out: MIC, E. coli CFT073 + 0 μg/mL SPR741) was > 64 µg/mL. The “MIC, P. aeruginosa PA01 + 8 μg/mL SPR741” value ([4]; 8 μg/mL SPR741) was “did not observe MAC-0452936 activity”, the MIC ([4]; PA01, read-out: MIC, P. aeruginosa PA01 + 8 μg/mL SPR741) was > 64 µg/mL and the MIC ([4]; PA01, read-out: MIC, P. aeruginosa PA01 + 0 μg/mL SPR741) was > 64 µg/mL. The “MIC, K. aerogenes CO045 + 8 μg/mL SPR741” value ([5]; 8 μg/mL SPR741) was “did not observe MAC-0452936 activity”, the MIC ([5]; CO045, read-out: MIC, K. aerogenes CO045 + 8 μg/mL SPR741) was > 64 µg/mL and the MIC ([5]; CO045, read-out: MIC, K. aerogenes CO045 + 0 μg/mL SPR741) was > 64 µg/mL. The “MIC, A. baumannii ATCC17978 + 8 μg/mL SPR741” value ([6]; 8 μg/mL SPR741) was “did not observe MAC-0452936 activity”, the MIC ([6]; ATCC17978, read-out: MIC, A. baumannii ATCC17978 + 8 μg/mL SPR741) was > 64 µg/mL and the MIC ([6]; ATCC17978, read-out: MIC, A. baumannii ATCC17978 + 0 μg/mL SPR741) was > 64 µg/mL. The “MIC, S. aureus MRSA JE2 + 8 μg/mL SPR741” value ([7]; 8 μg/mL SPR741) was “did not observe MAC-0452936 activity”, the MIC ([7]; read-out: MIC, S. aureus MRSA JE2 + 0 μg/mL SPR741) was > 64 µg/mL and the MIC ([7]; read-out: MIC, S. aureus MRSA JE2 + 8 μg/mL SPR741) was > 64 µg/mL. The “spectrum of growth inhibition, E. coli versus Gram-positive organisms” value [8] was “specifically inhibit E. coli”, the IC50 ([9]; in vitro Lgt inhibition Amph-Lgt IC50, Lgt purified using amphipol lipid matrix) was 590 nM and the IC50 ([9]; in vitro Lgt inhibition DDM-Lgt IC50, Lgt purified using DDM lipid matrix) was 1450 nM. For the same compound, the “compound concentrations that reduced bacterial counts to the limit of detection” value ([10]; LB, after 6 h) was “greater than 2 μg/mL”, the “killing of non-growing bacteria” value ([10]; nutrient-deplete medium (PBS), CFU) was “could not kill non-growing bacteria” and the “killing of actively growing bacteria” value ([10]; nutrient-replete medium (LB), CFU) was “potent bactericidal activity”.
